Patent publication US6403619B1, “Method for controlling cell necrosis or apoptosis” (University of Kentucky Research Foundation, priority 1998, dated 2002)

Tests used:
[1] = Octanol/water partition coefficient; format: physicochemical; conditions: extrapolated from Po/w values of the shorter esters; FIG. 14
Description: The first issue considered was the physical-chemical properties of the pro-NAD agents most desirable for topical application. The nicotinic acid molecule may not be optimal because it may be too polar to be effectively delivered to skin cells topically. Molecules that are too polar may not effectively partition into the apolar stratum corneum layer of skin and following passage across the stratum corneum, it would be expected to rapidly enter the systemic circulation. To evaluate the potential of these pro-NAD agents to partition into the stratum corneum, the octanol/water partition coefficients for the methyl, eythl-, butyl-, hexyl-, and octyl-esters of nicotinate were experimentally determined.
The octanol/water partition coefficient was determined by dissolving a known amount of pro-NAD agent in water and then mixing the aqueous compound with a known volume of octanol. After mixing for a period of 1 to 18 hours, aliquots of the water phase were analyzed by HPLC for the amount of remaining pro-NAD agent. The partition coefficient (P) was calculated from the following equation:
log Po/w=log10((Co−C)CVo))
where Co is the initial concentration in water and C is the concentration after partitioning. Vw and Vo represent the volume of water and octanol phases respectively.

[2] = system: NAD content of skin; assay: Skin NAD content after topical application, hairless mouse model; format: in vivo
Method: (§1) Based on evaluation of pro-NAD agents, proof of principle experiments for elevation of skin cell NAD content by topical delivery were performed using a hairless mouse model. In brief, tetradecylnicotinate was used for the initial studies. In the study three daily topical applications of 1% tetradecylnicotinate cream to the back of the animals and no cream were applied to the abdomen. Immediately following the third application, the skin from the back and abdomen were analyzed for NAD content. Test samples of skin were frozen in liquid nitrogen and powdered by mechanical means. NAD content was assessed as described previously (Jacobson, E L, and Jacobson, M K Meth Enzymol 280, 221-230, 1997; Jacobson, E L et al., J Cell Physiol 99, 417-426, 1979). The NAD assay is based on the principle of enzymic cycling between oxidized and reduced states, in which NAD is rate-limiting for a series of amplification reactions. Total protein was assayed by the Bradford assay.
(§2) In another experiment, the effect of the number of daily application of 1% tetradecylnicotinate cream was examined. Again, application was made to the back of the animal and the abdomen of each animal served as control.

[3] = Signs of toxicity after topical application, hairless mouse model; format: in vivo; conditions: topical 1% cream, experiments of FIGS. 15 and 16
Method: as §1, §2

[4] = Local vasodilation following topical application of cream (assesses rate of hydrolysis to nicotinate); format: in vivo; conditions: for duration of vasodilation / onset of vasodilation: topical application of a cream containing 0.05%
Description: The next issue considered was the rate of hydrolysis of topically applied pro-NAD agents to nicotinic acid such that conversion to NAD can be completed by the pathway shown in FIG. 11. The rates of hydrolysis of a pro-NAD agent following topical application can be assessed by evaluation of local vasodilation following topical application of a pro-NAD agent. […] Experiments have compared the absence or presence of vasodilation (and the time course of vasodilation when present) for a number of the pro-NAD agents shown in FIG. 13. For example, application of a cream containing 0.05% hexylnicotinate results in vasodilation with onset at approximately 10 minutes and duration of approximately 90 minutes. A similar application of octylnicotinate results in an onset of vasodilation at approximately 15 minutes with duration of 360 minutes. […] These experiments indicate that tetradecylnicotinate is released very slowly following application. Two factors are likely involved in the rate of hydrolysis of topically applied pro-NAD agents, the rate of departure from the stratum corneum and the rate of hydrolysis by esterases present in the epidermal and dermal layers of the skin.

[5] = system: Malignant epithelial cells; assay: Doubling of malignant epithelial cell populations under PARP (tankyrase) inhibition; format: cell-based; conditions: 0.1 M; after 10 weeks; compared with control grown without it; FIG. 20
Method: Malignant epithelial cells were grown in the presence of 0.1 M benzamide, which is known to inhibit all PARPs. The doubling of the cell populations was observed over a period of time, and compared to a control, which was grown in the absence of benzamide.

[6] = system: human skin fibroblasts; assay: Bioconversion of pro-NAD agents to NAD by skin fibroblasts in culture; format: cell-based; conditions: FIG. 11
Method: A series of experiments were performed to determine the possible classes of pro-NAD agents that may be used for the elevation of skin cell NAD content by topical application. Any compound that can be converted to NAD is referred to here as a “pro-NAD” agent.

[7] = system: p53; conditions: high levels of the agent; in the absence of and following genotoxic stress; FIG. 12B
Method: Briefly, cells were grown in control or suboptimal niacin media as described in Example 1 above, resulting in cells with normal or low NAD content. The protein of the cells was then extracted and portions of the extract were separated by SDS-polyacrylamide gel electrophoresis (SDS-PAGE) and p53 protein content was determined by immunoblotting (western blotting). […] FIG. 9B compares the relative content of p53 following genotoxic stress caused by the alkylating agent MNNG in cells with a low or normal NAD content.

[8] = system: cells; assay: Survival under oxidative genotoxic stress caused by staurosporin; format: cell-based; conditions: 50 μM in medium compared with none; different concentrations of staurosporin; FIG. 19
Method: These experiments describe studies on oxidative genotoxic stress, caused by staurosporin. Cells were contacted with different concentrations of staurosporin, and were cultured in medium that either contained no nicotinamide or 50 μM nicotinamide.

[9] = system: Epithelial cells; assay: Necrosis and apoptosis of epithelial cells under MNNG genotoxic stress; format: cell-based
Method: Epithelial cells were subjected to genotoxic stress with the alkylating agent N-methyl-N^1-nitro-N-nitrosoguanidine, or “MNNG” as referred to supra and hereafter. Epithelial cells were cultured in the presence of either no MNNG, 10 μg/mL MNNG, or 20 μg/mL of MNNG, in medium containing either 0, 50 μM or 500 μM nicotinamide. Percent necrosis and apoptosis was studied over time, i.e., for 48 hours. […] Nicotinamide is converted to NAD, but as indicated, none was added in the experiments depicted in 17A and 17D.

[10] = system: cells; assay: DNA integrity following genotoxic stress induced by MNNG; format: cell-based; conditions: high levels (500 micromolar) compared with normal levels (50 micromolar), FIG. 12A
Method: The DNA repair proficiency as a function of NAD content has been assessed also by a technique called a “comet assay.” In a comet assay (O. Ostling and K. J. Johanson, Biochem. Biophys. Res. Commun. 123: 291 (1984); P. L. Olive and J. P. Banath, Exp. Cell Res. 221: 19 (1995)), cells are plated out after embedding into liquid agarose on a carrier and lysed in situ after formation of an agarose gel. The DNA of the individual cells is then separated in situ in an electric field. Damaged DNA containing strand breaks migrates away from the cell nucleus due to its smaller size and this migration results in an image where the nucleus appears as the head of the comet and the broken DNA appears as tail of the comet. The more degraded the genomic DNA is, the greater the amount of migration-capable DNA and the longer the “comet tail.”

[11] = varying number of daily applications of 1% cream to the back, FIG. 16

CCCCCCCCCCCCCCOC(=O)c1cccnc1 [tetradecylnicotinate]
properties for partitioning into the stratum corneum (Po/w predicted by extrapolation) [1]: favorable properties for partitioning into the stratum corneum | NAD content of skin removed from the abdomen (no cream applied) ([2]; three daily applications of 1% cream to the back, FIG. 15): not increased | skin NAD content relative to control animal treated with base cream only ([2]; three daily topical applications of 1% cream to the back, back skin, FIG. 15): 143% | NAD content of skin removed from the back [2, 11]: increased as a function of the number of daily applications | NAD content of the abdomen (control site) [2, 11]: did not increase | signs of toxicity [3]: in no case were any signs of toxicity observed | vasodilation ([4]; similar topical application of cream (0.05%)): does not result in vasodilation

CCCCCCCCOC(=O)c1cccnc1 [octylnicotinate]
duration of vasodilation [4]: 360 min | onset of vasodilation [4]: approximately 15 minutes

NC(=O)c1ccccc1 [benzamide]
doubling of the cell populations [5]: stopped doubling

NC(=O)c1cccnc1 [nicotinamide]
bioconversion to NAD [6]: can be bioconverted to NAD | p53 levels / p53-signaling response [7]: abnormally high levels of p53 | rate of cell death (percentage survival) [8]: rate of cell death is decreased significantly | response (necrosis, apoptosis) to MNNG induced genotoxic shock ([9]; 500 μM in medium, MNNG 10 or 20 μg/mL, 48 hours, FIGS. 17C and 17F): Normal responses were not established | involvement in cell death pathways (cellular morphology over time) ([9]; none, 50 μM or 500 μM in medium, FIGS. 18A-18D): involved in cellular necrosis pathways much more than in apoptosis pathways | DNA integrity [10]: decreased DNA integrity

CCCCCCOC(=O)c1cccnc1 [hexylnicotinate]
duration of vasodilation [4]: approximately 90 minutes | onset of vasodilation [4]: approximately 10 minutes

CCCCCCCCCCCCCCCCCCOC(=O)c1cccnc1 [octadecylnicotinate]
properties for partitioning into the stratum corneum (Po/w predicted by extrapolation) [1]: favorable properties for partitioning into the stratum corneum

O=C(O)c1cccnc1 [nicotinic acid]
bioconversion to NAD [6]: can be bioconverted to NAD
